Experimental data taken from PubChem BioAssay AID2060905 (Molecular Pharmacology Branch, DTP, NCI, 2025).

Test system: 282377-053-R-J1-PDC complex spheroid viability
Assay: Anticancer human tumor 282377-053-R-J1-PDC patient-derived colon adenocarcinoma cell line growth inhibition [RAS]
Details: for IC50: curve of first compound; for viability, T/C: stronger effect = lower value; active means viability on the fitted dose curve at most 10% of control; inactive means the rest
Summary of the method: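 Agents were tested in combination matrices in half-log decrements from a top concentration at or near clinical Cmax (10 microM if undetermined). Targets were multi-cell spheroids of tumour lines plus HUVEC and MSC stromal cells.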

[1] = second compound 0.000949 µM, first compound 0.00316 µM
[2] = second compound 0.000949 µM, first compound 0.01 µM
[3] = second compound 0.000949 µM, first compound 0.0316 µM
[4] = second compound 0.000949 µM, first compound 0.1 µM
[5] = second compound 0.000949 µM, first compound 0.316 µM
[6] = second compound 0.000949 µM, first compound 1 µM
[7] = second compound 0.003 µM, first compound 0.00316 µM
[8] = second compound 0.003 µM, first compound 0.01 µM
[9] = second compound 0.003 µM, first compound 0.0316 µM
[10] = second compound 0.003 µM, first compound 0.1 µM
[11] = second compound 0.003 µM, first compound 0.316 µM
[12] = second compound 0.003 µM, first compound 1 µM
[13] = second compound 0.00949 µM, first compound 0.00316 µM
[14] = second compound 0.00949 µM, first compound 0.01 µM
[15] = second compound 0.00949 µM, first compound 0.0316 µM
[16] = second compound 0.00949 µM, first compound 0.1 µM
[17] = second compound 0.00949 µM, first compound 0.316 µM
[18] = second compound 0.00949 µM, first compound 1 µM
[19] = second compound 0.03 µM, first compound 0.00316 µM
[20] = second compound 0.03 µM, first compound 0.01 µM
[21] = second compound 0.03 µM, first compound 0.0316 µM
[22] = second compound 0.03 µM, first compound 0.1 µM
[23] = second compound 0.03 µM, first compound 0.316 µM
[24] = second compound 0.03 µM, first compound 1 µM
[25] = second compound 0.0949 µM, first compound 0.00316 µM
[26] = second compound 0.0949 µM, first compound 0.01 µM
[27] = second compound 0.0949 µM, first compound 0.0316 µM
[28] = second compound 0.0949 µM, first compound 0.1 µM
[29] = second compound 0.0949 µM, first compound 0.316 µM
[30] = second compound 0.0949 µM, first compound 1 µM
[31] = second compound 0.3 µM, first compound 0.00316 µM
[32] = second compound 0.3 µM, first compound 0.01 µM
[33] = second compound 0.3 µM, first compound 0.0316 µM
[34] = second compound 0.3 µM, first compound 0.1 µM
[35] = second compound 0.3 µM, first compound 0.316 µM
[36] = second compound 0.3 µM, first compound 1 µM
[37] = second compound 0.000949 µM, first compound 3.16 µM
[38] = second compound 0.000949 µM, first compound 10 µM
[39] = second compound 0.003 µM, first compound 3.16 µM
[40] = second compound 0.003 µM, first compound 10 µM
[41] = second compound 0.00949 µM, first compound 3.16 µM
[42] = second compound 0.00949 µM, first compound 10 µM
[43] = second compound 0.03 µM, first compound 3.16 µM
[44] = second compound 0.03 µM, first compound 10 µM
[45] = second compound 0.0949 µM, first compound 3.16 µM
[46] = second compound 0.0949 µM, first compound 10 µM
[47] = second compound 0.3 µM, first compound 3.16 µM
[48] = second compound 0.3 µM, first compound 10 µM
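Further: spheroids exposed to agents for seven days before readout.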
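Wherever viability, T/C is given: luminescence viability as percent of DMSO vehicle control wells.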

C=CC(=O)Nc1cc(Nc2nccc(-c3cn(C)c4ccccc34)n2)c(OC)cc1N(C)CCN(C)C + CCn1c(-c2cc(N3CCN(C)CC3)cnc2C(C)OC)c2c3cc(ccc31)-c1csc(n1)CC(NC(=O)C1CC1C)C(=O)N1CCCC(N1)C(=O)OCC(C)(C)C2
> 1000 nM: IC50 (second compound 0.000949 µM) | IC50 (second compound 0.003 µM) | IC50 (second compound 0.00949 µM) | IC50 (second compound 0.03 µM) | IC50 (second compound 0.0949 µM) | IC50 (second compound 0.3 µM)
inactive: viability, T/C [1] 96.5% | viability, T/C [2] 109% | viability, T/C [3] 78% | viability, T/C [4] 86.9% | viability, T/C [5] 83.4% | viability, T/C [6] 91.6% | viability, T/C [7] 87.3% | viability, T/C [8] 106% | viability, T/C [9] 89.9% | viability, T/C [10] 80.8% | viability, T/C [11] 83.6% | viability, T/C [12] 75.8% | viability, T/C [13] 102% | viability, T/C [14] 90.8% | viability, T/C [15] 97.5% | viability, T/C [16] 84.8% | viability, T/C [17] 73.8% | viability, T/C [18] 80.3% | viability, T/C [19] 83% | viability, T/C [20] 97.4% | viability, T/C [21] 116% | viability, T/C [22] 89.9% | viability, T/C [23] 85.6% | viability, T/C [24] 94.4% | viability, T/C [25] 95% | viability, T/C [26] 92.5% | viability, T/C [27] 97.8% | viability, T/C [28] 78.6% | viability, T/C [29] 112% | viability, T/C [30] 91.7% | viability, T/C [31] 84.9% | viability, T/C [32] 97.2% | viability, T/C [33] 92% | viability, T/C [34] 97.5% | viability, T/C [35] 98.6% | viability, T/C [36] 138%

CC(C)NCC(C(=O)N1CCN(c2ncnc3c2C(C)CC3O)CC1)c1ccc(Cl)cc1 (stereo not drawn) + CCn1c(-c2cc(N3CCN(C)CC3)cnc2C(C)OC)c2c3cc(ccc31)-c1csc(n1)CC(NC(=O)C1CC1C)C(=O)N1CCCC(N1)C(=O)OCC(C)(C)C2
> 10000 nM: IC50 (second compound 0.000949 µM) | IC50 (second compound 0.003 µM) | IC50 (second compound 0.00949 µM) | IC50 (second compound 0.03 µM) | IC50 (second compound 0.0949 µM) | IC50 (second compound 0.3 µM)
inactive: viability, T/C [3] 96.1% | viability, T/C [4] 93.7% | viability, T/C [5] 80.8% | viability, T/C [6] 79.4% | viability, T/C [37] 78% | viability, T/C [38] 76.5% | viability, T/C [9] 90.7% | viability, T/C [10] 106% | viability, T/C [11] 88.2% | viability, T/C [12] 71.8% | viability, T/C [39] 76.2% | viability, T/C [40] 68.3% | viability, T/C [15] 93% | viability, T/C [16] 119% | viability, T/C [17] 79.4% | viability, T/C [18] 68% | viability, T/C [41] 70.7% | viability, T/C [42] 69.1% | viability, T/C [21] 111% | viability, T/C [22] 83.1% | viability, T/C [23] 82.5% | viability, T/C [24] 70% | viability, T/C [43] 65.3% | viability, T/C [44] 64.4% | viability, T/C [27] 95.3% | viability, T/C [28] 87.6% | viability, T/C [29] 93.8% | viability, T/C [30] 62.8% | viability, T/C [45] 63.8% | viability, T/C [46] 65.4% | viability, T/C [33] 100% | viability, T/C [34] 86.6% | viability, T/C [35] 109% | viability, T/C [36] 69.1% | viability, T/C [47] 64.6% | viability, T/C [48] 69.9%

CC(Nc1ccc2c(c1)OCCn1cc(N3C(=O)OCC3C(F)F)nc1-2)C(N)=O (stereo not drawn) + CCn1c(-c2cc(N3CCN(C)CC3)cnc2C(C)OC)c2c3cc(ccc31)-c1csc(n1)CC(NC(=O)C1CC1C)C(=O)N1CCCC(N1)C(=O)OCC(C)(C)C2
> 10000 nM: IC50 (second compound 0.000949 µM) | IC50 (second compound 0.003 µM) | IC50 (second compound 0.00949 µM) | IC50 (second compound 0.03 µM) | IC50 (second compound 0.0949 µM) | IC50 (second compound 0.3 µM)
inactive: viability, T/C [3] 95.5% | viability, T/C [4] 104% | viability, T/C [5] 81.1% | viability, T/C [6] 80% | viability, T/C [37] 74.3% | viability, T/C [38] 77.4% | viability, T/C [9] 96.5% | viability, T/C [10] 104% | viability, T/C [11] 95.2% | viability, T/C [12] 81.8% | viability, T/C [39] 75.3% | viability, T/C [40] 70.6% | viability, T/C [15] 103% | viability, T/C [16] 83.4% | viability, T/C [17] 109% | viability, T/C [18] 96.5% | viability, T/C [41] 84.5% | viability, T/C [42] 68.3% | viability, T/C [21] 86.6% | viability, T/C [22] 83.2% | viability, T/C [23] 84.1% | viability, T/C [24] 80.3% | viability, T/C [43] 82.2% | viability, T/C [44] 70.7% | viability, T/C [27] 90.6% | viability, T/C [28] 82.9% | viability, T/C [29] 93.7% | viability, T/C [30] 95.3% | viability, T/C [45] 82.9% | viability, T/C [46] 98.7% | viability, T/C [33] 106% | viability, T/C [34] 78.9% | viability, T/C [35] 94.3% | viability, T/C [36] 104% | viability, T/C [47] 84.3% | viability, T/C [48] 87.9%

O=C(c1ccc(F)c(F)c1Nc1ccc(I)cc1F)N1CC(O)([C@@H]2CCCCN2)C1 + CCn1c(-c2cc(N3CCN(C)CC3)cnc2C(C)OC)c2c3cc(ccc31)-c1csc(n1)CC(NC(=O)C1CC1C)C(=O)N1CCCC(N1)C(=O)OCC(C)(C)C2
37.7 nM: IC50 (second compound 0.00949 µM)
56.7 nM: IC50 (second compound 0.003 µM)
17.9 nM: IC50 (second compound 0.0949 µM)
11.9 nM: IC50 (second compound 0.03 µM)
14.3 nM: IC50 (second compound 0.3 µM)
38.2 nM: IC50 (second compound 0.000949 µM)
inactive: viability, T/C [1] 68.3% | viability, T/C [2] 65.3% | viability, T/C [3] 49.6% | viability, T/C [4] 39.9% | viability, T/C [5] 27.2% | viability, T/C [6] 16.9% | viability, T/C [7] 70.3% | viability, T/C [8] 61.9% | viability, T/C [9] 69.6% | viability, T/C [10] 33.2% | viability, T/C [11] 26.1% | viability, T/C [12] 14.6% | viability, T/C [13] 68% | viability, T/C [14] 67.4% | viability, T/C [15] 51.7% | viability, T/C [16] 34% | viability, T/C [17] 22.1% | viability, T/C [18] 16% | viability, T/C [19] 77.4% | viability, T/C [20] 43% | viability, T/C [21] 45.9% | viability, T/C [22] 26.7% | viability, T/C [23] 20.6% | viability, T/C [24] 15.4% | viability, T/C [25] 75.9% | viability, T/C [26] 68% | viability, T/C [27] 32% | viability, T/C [28] 23.8% | viability, T/C [29] 18.1% | viability, T/C [30] 13.8% | viability, T/C [31] 67.8% | viability, T/C [32] 58.6% | viability, T/C [33] 31.1% | viability, T/C [34] 21.5% | viability, T/C [35] 18.8% | viability, T/C [36] 15.8%
